Assay results from patent US9539280B2, “Cartilage production promoter and prophylactic or therapeutic agent for diseases associated with cartilage damage” (NATIONAL UNIVERSITY CORPORATION TOTTORI UNIVERSITY, priority 2009, dated 2017).
“Also recorded” adds a separate entry of the source.

Tests used:
Type in all cases: in vivo, rabbit
glycosaminoglycan = test: Histological observation, staining with alcian blue and image analysis
Protocol: (§1) As animal specimens, groups of female white rabbits (weight: about 2.0 kg) were used, the number of the rabbits in each of the groups being 3. The rabbits were habituated to the environment for one week from the time of delivery. Thereafter, 0.1 mg/kg of medetomidine was subcutaneously injected into each of the rabbits, and 25 mg/kg of Ketalar was intramuscularly injected thereto. About each of the rabbit specimens subjected to the injection anesthesia, the left knee joint was shaved, and then disinfected. Thereafter, approaching from the outside of the knee joint, the articular capsule was opened and the knee joint was exposed completely by shifting the patella to the inside. With reference to the experiment of Tamai et al. (Carbohydrate Polymers, 2002, vol. 48, pp. 369-378), three holes of 2 mm in diameter and 4 mm in depth were bored with a hand-drill at the proximal trochlear groove, distal trochlear groove, and the medial trochlear ridge. Thereafter, the sites were sufficiently rinsed, and then the articular capsule was sutured with 3-0PDS (polydioxanone). […]
(§2) The left femur of each of the damaged models in Example 1 was recovered, and then fixed with a 10% neutral buffered formalin aqueous solution (formaldehyde solution). […] The number of pixels in which a target color tone occupied was measured. […]

[1] = Observation of side effects during fucoidan administration; conditions: 1 g fucoidan in 50 mL water every day by natural intake, 3 weeks, female white rabbits
Protocol: From the day of the operation, initially every day, water (50 mL) in which 1 g of a fucoidan was dissolved were dosed to the rabbits in the fucoidan-administered group by natural intake. Thereafter, water was given to the rabbits to drink freely. This was continued for 3 weeks. Only water was given to the rabbits in the control group.

[2] = tested on: damaged models (holes bored at proximal trochlear groove, distal trochlear groove and medial trochlear ridge of left knee joint); test: Macroscopic observation of the degree of healing in cartilage damaged models; conditions: after 3 weeks
Protocol: As animal specimens, groups of female white rabbits (weight: about 2.0 kg) were used, the number of the rabbits in each of the groups being 3. The rabbits were habituated to the environment for one week from the time of delivery. Thereafter, 0.1 mg/kg of medetomidine was subcutaneously injected into each of the rabbits, and 25 mg/kg of Ketalar was intramuscularly injected thereto. About each of the rabbit specimens subjected to the injection anesthesia, the left knee joint was shaved, and then disinfected. Thereafter, approaching from the outside of the knee joint, the articular capsule was opened and the knee joint was exposed completely by shifting the patella to the inside. With reference to the experiment of Tamai et al. (Carbohydrate Polymers, 2002, vol. 48, pp. 369-378), three holes of 2 mm in diameter and 4 mm in depth were bored with a hand-drill at the proximal trochlear groove, distal trochlear groove, and the medial trochlear ridge. Thereafter, the sites were sufficiently rinsed, and then the articular capsule was sutured with 3-0PDS (polydioxanone). The subcutaneous tissue and the skin were simultaneously sutured with stainless steel wires. […] The degree of healing of each of the damages was scored on the basis of Table 1, and evaluated. […] About each of the damaged model groups, the degree of healing was evaluated on the basis of the criterion in Example 2. […]

proteoglycan = test: Histological observation, staining with safranin-O and image analysis
Protocol: as §1, §2

[3] = Example 3, FIG. 6, vs control group, t-test

## fucoidan
glycosaminoglycan; [3]
  image analysis of alcian blue-stained images (glycosaminoglycan): significantly higher value
glycosaminoglycan; Example 3, FIGS. 2 and 3, proximal and distal trochlear groove, microscope
  alcian blue staining of repaired regions (glycosaminoglycan content): a large amount of glycosaminoglycan was contained
[1]
  signs of side effects: no signs of side effects
[2]; Example 2, FIG. 1, vs control group
  degree of healing (macroscopic observation): many of the damages were satisfactorily cured; also recorded: good therapeutic results
[2]; Example 2, control filled with collagen fibers, fibroblasts
  tissue in the damaged sites: substituted with chondroblasts and cartilage tissues
proteoglycan; [3]
  image analysis of safranin-O-stained images (proteoglycan): significantly higher value
proteoglycan; Example 3, FIGS. 4 and 5, proximal and distal trochlear groove, microscope
  safranin-O staining of repaired regions (proteoglycan content): a large amount of proteoglycan was contained
